Measurements as given in patent US12497637B1, “Stabilization of tryptamines by denaturing enzymes, optimizing ionization states, and controlling confounding variables” (Convergent Health Sciences LLC, priority 2025, dated 2025).

Columns and labels:
[1] = Spontaneous dephosphorylation of phosphoryloxytryptamines in 100 millimolar phosphate buffers, 85 degrees Celsius, one hour, HPLC at 220 nanometers
[2] = cited from earlier work
[3] = test system: laccase enzyme; assay: Colorimetric assay with a syringaldazine substrate for residual laccase enzyme activity; assay type: biochemical, Psilocybe cubensis; conditions: relative to the water control
From the text: The denaturation of relevant laccase enzymes may be assessed, for example, by performing a colorimetric assay with a laccase enzyme substrate such as syringaldazine or 2,2′-azino-bis(3-ethylbenzothiazoline-6-sulfonate) (ABTS). Syringaldazine comprises an aromatic structure with pendant hydroxyl groups, which is chemically similar to the indole of a hydroxytryptamine, and ABTS comprises a benzothiazoline, which is chemically similar to the indole of tryptamines generally. Colorimetric assays performed with a syringaldazine or ABTS substrate therefore provide suitable methods to assess laccase activity that are relevant to this disclosure.
(§1) 20 milliliters of 6 molar guanidinium chloride in distilled, deionized water and buffered to a pH of 6.0 with 50 millimolar phosphate buffer is added to each of three opaque 50-milliliter polypropylene centrifuge tubes. 20 milliliters of 8 molar urea in distilled, deionized water and buffered to a pH of 6.0 with 50 millimolar phosphate buffer is added to each of three opaque 50-milliliter polypropylene centrifuge tubes. 20 milliliters of 4 molar ammonium sulfate in distilled, deionized water and buffered to a pH of 6.0 with 50 millimolar MES buffer is added to each of three opaque 50-milliliter polypropylene centrifuge tubes. 20 milliliters of 2 percent sodium dodecyl sulfate (w/v) in distilled, deionized water and buffered to a pH of 6.0 with 50 millimolar phosphate buffer is added to each of three opaque 50-milliliter polypropylene centrifuge tubes. 20 milliliters of 1 percent Triton X-100 (v/v) in distilled, deionized water and buffered to a pH of 6.0 with 50 millimolar phosphate buffer is added to each of three opaque 50-milliliter polypropylene centrifuge tubes. 20 milliliters of 2 percent octyl glucoside (w/v) in distilled, deionized water and buffered to a pH of 6.0 with 50 millimolar phosphate buffer is added to each of three opaque 50-milliliter polypropylene centrifuge tubes. 20 milliliters of distilled, deionized water is buffered to a pH of 6.0 with 50 millimolar phosphate buffer and added to each of three opaque 50-milliliter polypropylene centrifuge tubes. Each of the centrifuge tubes is placed on ice.
(§2) The stipes of three freshly-harvested Psilocybe cubensis fruiting bodies are each cut into seven sections of approximately 1 gram each, weighed, and immediately placed into one of the polypropylene tubes such that a section of each stipe is placed in each of the guanidinium, urea, ammonium sulfate, sodium dodecyl sulfate, Triton X-100, and octyl glucoside solutions as well as the water control. Each of the samples is homogenized and then sonicated within the polypropylene tubes. The polypropylene tubes are then loaded onto an orbital shaker in a cold room at 4 degrees Celsius and mixed at 450 revolutions per minute for four hours. After mixing, the samples are placed on ice.
(§3) The samples are centrifuged, and the supernatants are analyzed by HPLC as described in Example 1. The molecular weights of the analytes are determined by electrospray ionization mass spectroscopy (ESI-MS) operating in positive ion mode. The supernatants are also used for a colorimetric assay with a para-nitrophenyl phosphate substrate to identify residual phosphatase enzyme activity and for a colorimetric assay with a syringaldazine substrate to identify any residual laccase enzyme activity.

[4] = test system: phosphatase enzyme; assay: Colorimetric assay with a para-nitrophenyl phosphate substrate for residual phosphatase enzyme activity; assay type: biochemical, Psilocybe cubensis; conditions: relative to the water control
From the text: The denaturation of relevant phosphatase enzymes may be assessed, for example, by performing a colorimetric assay with a para-nitrophenyl phosphate substrate. Para-nitrophenyl phosphate comprises a phosphorylated aromatic, which is chemically similar to the phosphorylated indole of a phosphoryloxytryptamine. Colorimetric assays performed with a para-nitrophenyl phosphate substrate therefore provide suitable methods to assess […] that are relevant to this disclosure.
as §1, §2, §3

[5] = cited from earlier work; remark: listed apart in the source
[6] = pH of 2.0 relative to pH of 3.0
[7] = pH of 7.0 relative to pH of 6.0
[8] = pH of 3.0 relative to pH of 2.0
[9] = pH of 6.0 relative to pH of 7.0

## NCCc1c[nH]c2cccc(O)c12 [4-HT, 3-(2-aminoethyl)-1H-indol-4-ol]
[1]; [6]
  absorbance detected for the hydroxytryptamine (dephosphorylation product): greater absorbance
[1]; [7]
  absorbance detected for the hydroxytryptamine (dephosphorylation product): greater absorbance

## C[N+](C)(C)CCc1c[nH]c2cccc(O)c12 [4-hydroxy-TMT, [2-(4-hydroxy-1H-indol-3-yl)ethyl]-trimethylazanium]
[1]; [6]
  absorbance detected for the hydroxytryptamine (dephosphorylation product): greater absorbance
[1]; [7]
  absorbance detected for the hydroxytryptamine (dephosphorylation product): greater absorbance

## O=C(O)Cc1c[nH]c2ccccc12 [Indole-3-acetic acid, indole-3-acetic acid]
[2]
  solubility in water: insoluble in water

## C[N+](C)(C)CCc1c[nH]c2cccc(OP(=O)(O)O)c12 [aeruginascin, [2-(4-phosphonooxy-1H-indol-3-yl)ethyl]-trimethylazanium]
[1]; [8]
  absorbance detected for the phosphoryloxytryptamine: Greater absorbance
[1]; [9]
  absorbance detected for the phosphoryloxytryptamine: Greater absorbance

## N.N.O=S(=O)(O)O [ammonium sulfate]
[3]
  laccase enzyme activity in the colorimetric assay: significantly less laccase enzyme activity
[4]
  phosphatase enzyme activity in the colorimetric assay: significantly less phosphatase enzyme activity

## CNCCc1c[nH]c2cccc(OP(=O)(O)O)c12 [baeocystin, [2-(4-phosphonooxy-1H-indol-3-yl)ethyl]-methylazanium]
[1]; [8]
  absorbance detected for the phosphoryloxytryptamine: Greater absorbance
[1]; [9]
  absorbance detected for the phosphoryloxytryptamine: Greater absorbance

## Cl.N=C(N)N [guanidinium, guanidinium chloride]
[3]
  laccase enzyme activity in the colorimetric assay: significantly less laccase enzyme activity
[4]
  phosphatase enzyme activity in the colorimetric assay: significantly less phosphatase enzyme activity

## NCCc1c[nH]c2cccc(OP(=O)(O)O)c12 [norbaeocystin, 2-(4-phosphonooxy-1H-indol-3-yl)ethylazanium]
[1]; [8]
  absorbance detected for the phosphoryloxytryptamine: Greater absorbance
[1]; [9]
  absorbance detected for the phosphoryloxytryptamine: Greater absorbance

## CNCCc1c[nH]c2cccc(O)c12 [norpsilocin, 3-[2-(methylamino)ethyl]-1H-indol-4-ol]
[1]; [6]
  absorbance detected for the hydroxytryptamine (dephosphorylation product): greater absorbance
[1]; [7]
  absorbance detected for the hydroxytryptamine (dephosphorylation product): greater absorbance

## CCCCCCCCO[C@@H]1O[C@H](CO)[C@@H](O)[C@H](O)[C@H]1O [octyl glucoside, octyl β-D-glucopyranoside]
[3]
  laccase enzyme activity in the colorimetric assay: significantly less laccase enzyme activity
[4]
  phosphatase enzyme activity in the colorimetric assay: significantly less phosphatase enzyme activity

## CN(C)CCc1c[nH]c2cccc(O)c12 [psilocin, 3-[2-(dimethylamino)ethyl]-1H-indol-4-ol]
[1]; [6]
  absorbance detected for the hydroxytryptamine (dephosphorylation product): greater absorbance
[1]; [7]
  absorbance detected for the hydroxytryptamine (dephosphorylation product): greater absorbance

## CN(C)CCc1c[nH]c2cccc(OP(=O)(O)O)c12 [psilocybin]
[5]; conjugate acid of the amino
  pKa of the azanium of psilocybin: about 10.4
[5]; first phosphate pKa
  pKa of the dihydrogen phosphate of psilocybin (lowest pKa): about 1.3

## CCCCCCCCCCCCOS(=O)(=O)[O-].[Na+] [sodium dodecyl sulfate]
[3]
  laccase enzyme activity in the colorimetric assay: significantly less laccase enzyme activity
[4]
  phosphatase enzyme activity in the colorimetric assay: significantly less phosphatase enzyme activity

## OCCc1c[nH]c2ccccc12 [tryptophol]
[2]
  solubility in water: insoluble in water

## NC(N)=O [urea]
[3]
  laccase enzyme activity in the colorimetric assay: significantly less laccase enzyme activity
[4]
  phosphatase enzyme activity in the colorimetric assay: significantly less phosphatase enzyme activity

## Chitin
[2]
  solubility in water: insoluble in water

## polyethylene glycol 4-(2,4,4-trimethylpent-2-yl)phenyl ether [Triton X-100]
[3]
  laccase enzyme activity in the colorimetric assay: significantly less laccase enzyme activity
[4]
  phosphatase enzyme activity in the colorimetric assay: significantly less phosphatase enzyme activity
